Assay results published in patent publication US20160022642A1, “Compounds Useful for Promoting Protein Degradation and Methods Using Same” (Yale University, priority 2014, published 2016).

Tests used:
Type in all cases: cell-based
[1] = system: LnCAP cells; assay: LNCaP cell proliferation assay in the presence of 1 nM R1881 (CellTiterGlo); details: 5% charcoal stripped serum, 7 days
Description: (§1) LNCaP-AR cells were treated with hormone for 18 hours as indicated and then, RNA was isolated and FKBP52 expression was assessed by qPCR. GAPDH was used to normalize expression. Error represents standard deviation (Panel A). LNCaP cell proliferation assay in the presence of indicated compounds at 3 μM and then, the assay was performed in 10% FBS, and only viable cells were counted at each indicated day (Panel B). […] LNCaP/AR-F876L cells were treated with indicated compounds for 24 hours in 5% charcoal stripped FBS, and then, mRNA was prepared and the relative PSA mRNA was determined by qPCR (Panel D).
For FIG. 33, panel C, the LNCaP cells were washed with PBS, seeded at 5,000 cells per well in a 96-well plate in 5% Charcoal Stripped Serum (Omega) in phenol-red free RPMI media (Invitrogen). […] Baseline CellTiterGlo (Promega) reading was taken immediately after addition of compounds and 7 days later. The data are plotted so that the Y axis reflects the degree of proliferation at Day 7, compared to Day 0.

[2] = system: HEK 293T; assay: Cell proliferation assay with HEK 293T cells; details: 3 μM
Description: (§2) FIGS. 35A-35B are a series of graphs illustrating results of cell proliferation assay. Cell proliferation assay was performed with AR-negative PC-3 prostate cancer cells (FIG. 35A). Indicated compounds at shown doses were added to previously plated PC-3 cells in phenol-red free RPMI, supplemented with 5% charcoal stripped FBS. CellTiterGlo readings were taken at indicated days and the data are plotted as a % of proliferation from Day 0. Cell proliferation assay was performed with HEK293 cells (FIG. 35B), which were plated at 2,000 cells/well in a 6-well plate and dosed with indicated compounds at 3 μM.

[3] = system: PC3 human prostate cancer cell line; assay: Cell proliferation assay with AR-negative PC-3 prostate cancer cells (CellTiterGlo); details: 5% charcoal stripped FBS
Description: as §2

[4] = biological target: T1, androgen receptor (AR) (Homo sapiens, UniProt P10275, T878A); assay: SARD-mediated AR degradation, western blot in LNCaP cells
T1 construct: endogenous in cells; host or cells: LNCaP
T1 sequence (P10275 1-920 T878A): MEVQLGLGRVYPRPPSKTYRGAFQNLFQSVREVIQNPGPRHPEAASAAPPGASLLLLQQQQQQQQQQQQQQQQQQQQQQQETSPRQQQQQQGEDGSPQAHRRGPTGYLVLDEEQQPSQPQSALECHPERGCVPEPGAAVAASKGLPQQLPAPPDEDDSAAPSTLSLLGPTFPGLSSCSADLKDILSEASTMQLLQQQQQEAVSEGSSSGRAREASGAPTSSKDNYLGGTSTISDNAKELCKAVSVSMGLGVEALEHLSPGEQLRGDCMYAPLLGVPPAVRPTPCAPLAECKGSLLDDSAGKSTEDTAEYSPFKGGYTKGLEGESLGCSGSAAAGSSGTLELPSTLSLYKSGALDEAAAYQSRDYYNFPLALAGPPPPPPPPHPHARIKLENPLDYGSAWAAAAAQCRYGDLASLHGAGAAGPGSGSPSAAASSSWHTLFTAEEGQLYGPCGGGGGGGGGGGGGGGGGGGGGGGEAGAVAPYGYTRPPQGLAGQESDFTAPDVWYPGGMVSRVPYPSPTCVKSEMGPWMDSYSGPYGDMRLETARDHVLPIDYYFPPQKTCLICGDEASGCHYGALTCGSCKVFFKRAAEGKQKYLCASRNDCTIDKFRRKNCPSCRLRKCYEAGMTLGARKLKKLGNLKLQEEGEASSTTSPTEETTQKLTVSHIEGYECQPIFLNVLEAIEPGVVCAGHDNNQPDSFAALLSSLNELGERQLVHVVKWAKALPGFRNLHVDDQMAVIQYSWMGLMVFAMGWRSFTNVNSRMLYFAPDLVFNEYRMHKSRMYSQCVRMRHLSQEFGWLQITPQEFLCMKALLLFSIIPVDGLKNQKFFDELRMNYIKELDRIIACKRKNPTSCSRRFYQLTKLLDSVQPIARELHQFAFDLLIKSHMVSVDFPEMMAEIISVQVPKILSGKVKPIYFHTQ
Description: FIG. 15A illustrates representative western blots of SARD mediated AR degradation. FIG. 15B is a graph illustrating the percentage of remaining AR as a function of SARD compound concentration.
(§3) FIGS. 32A-32B show a series of representative western blots of SARD-mediated AR degradation according to the present description. LNCaP cells were treated with indicated compounds for 24 hours and SARD 279 and RU59063 were used at 2.5 μM and 25 μM, respectively (FIG. 32A).
(§4) LNCaP and PC3 cells were obtained from ATCC. LNCaP/AR-876L and LNCaP/AR cells were generated by infecting LNCaP cells with the 876L or WT, respectively, AR. All cells were grown at 37° C. in RPMI and supplemented with 10% FBS, 100 U/ml carbenicillin and 100 μg/ml streptomycin. AR (5153) and Hsp70 (4872) antibodies were obtained from Cell Signaling. β-actin antibody (AC-74) was purchased from Sigma. Geldanamycin was purchased from Invivogen. The indicated cells were washed twice with cold PBS, and the cells were lysed in lysis buffer (1×PBS, 1% NP-40, 1 mM EDTA, 40 mM HEPES) with protease inhibitors. The lysates were cleared by centrifugation at 10,000 g for 5 min. The total protein concentration was determined by Bradford assay, and 10 μg of protein was loaded onto an 8% Bis-Tris gel. The blots were processed by standard procedures with the indicated antibodies, and the band intensities were quantified by ImageJ (US National Institutes of Health).

[5] = system: AR target genes (FKBP52, PMPEA 1, NKX3.1) in LNCaP-AR cells; assay: AR-dependent gene expression by qPCR in LNCaP-AR cells; details: 18 hours; for AR agonist activity: expression of AR target genes: qPCR normalized to GAPDH
Description: as §1
FIGS. 34A-34B are a series of graphs illustrating relative pMPEA1 mRNA levels (FIG. 34A) or relative NKX3.1 mRNA levels (FIG. 34B) after treated with SARDS compounds according to the present description. LNCaP-AR cells were treated with hormone for 18 hours and subsequently, mRNA was isolated and FKBP52 expression was assessed by qPCR. GAPDH was used to normalize expression. Error represents standard deviation.
The effects of the SARDS in the present description on AR-dependent gene expression in AR overexpressing LNCaP-AR cells, a validated cellular model of CRPC were examined. LNCaP-AR cells were treated with hormone for 18 hours as indicated. RNA was isolated and FKBP52 expression was assessed by QPCR. GAPDH was used to normalize expression. Error represents standard deviation.

[6] = system: LnCAP cells; assay: Proliferation of androgen-dependent LnCAP cells
Description: as §1
For FIG. 33, panel B, 2,000 cells in RPMI media, supplemented with 10% FBS, 100 U/ml carbenicillin and 100 μg/ml streptomycin, were plated into each well in a 6-well plate. Two days after plating, the cells were treated with indicated compounds. The number of cells in each well was counted with a hemocytometer using Trypan blue to distinguish viable cells.

[7] = system: HeLa cells; assay: General cell toxicity in AR-independent HELA cells; details: 1 μM, 48 h
Description: (§5) To access general cell toxicity, AR-independent HEK293 and HELA cells were treated with 1 μM SARD 279.

[8] = system: HEK293 cells; assay: General cell toxicity in AR-independent HEK293 cells; details: HEK293, 1 μM, 48 h
Description: as §5

[9] = system: Hsp70; assay: Hsp70 immunoblot in LNCaP cells treated with SARD 279 and geldanamycin; details: 24 hours
Description: as §3, §4

Row | SMILES | Proliferation of HEK 293T cells [2] | Proliferation of PC3 cells [3] | AR degradation (in words) [4] | AR agonist activity: expression of AR target genes [5] | also measured
1 | CNC(=O)c1ccc(N2C(=S)N(c3ccc(C#N)c(C(F)(F)F)c3)C(=O)C2(C)C)cc1F [MDV3100, reference compound] | unaffected | unaffected | – | – | Antiproliferative activity in the presence of 1 nM R1881 [1]: ineffective in the presence of higher androgen levels
2 | CC1(C)C(=O)N(c2ccc(C#N)c(C(F)(F)F)c2)C(=S)N1CCCCO [RU59063, 4-[3-(4-hydroxybutyl)-4,4-dimethyl-5-oxo-2-thioxoimidazolidin-1-yl]-2-(trifluoromethyl)benzonitrile, reference compound] | – | – | no degradation was detected | increasing expression of a number of AR target genes | –
3 | CC1(C)C(=O)N(c2ccc(C#N)c(C(F)(F)F)c2)C(=S)N1CCCC(=O)NCCOCCOCCOCCOC12CC3CC(CC(C3)C1)C2 [SARD 033, N-(2-(2-(2-(2-(Adamantan-1-yloxy)ethoxy)ethoxy)ethoxy)ethyl)-4-(3-(4-cyano-3-(trifluoromethyl)phenyl)-5,5-dimethyl-4-oxo-2-thioxoimidazolidin-1-yl)butanamide] | unaffected | unaffected | – | no such agonist activity | Cell growth / proliferation of LnCAP cells ([6]; 1 μM, several days): significantly attenuated cell growth; Proliferation of LNCaP cells, viable cell count ([6]; 3 μM, 10% FBS, hemocytometer with Trypan blue, over 9 days): suppressed proliferation with similar efficacy to MDV3100; Antagonism of gene expression induced by R1881 ([5]; qPCR): antagonized gene expression induced by the synthetic androgen R1881
4 | CC1(C)C(=O)N(c2ccc(C#N)c(C(F)(F)F)c2)C(=S)N1CCCC(=O)NCCOCCOC(=O)CC12CC3CC(CC(C3)C1)C2 [SARD 279, 2-(2-(4-(3-(4-Cyano-3-(trifluoromethyl)phenyl)-5,5-dimethyl-4-oxo-2-thioxoimidazolidin-1-yl)butanamido)ethoxy)ethyl 2-(adamantan-1-yl)acetate] | – | – | – | – | Cytotoxicity compared to vehicle [7]: did not display cytotoxic results; DC50 ([4]; read-out: DC50 (half maximum degradation concentration) of AR): 1000 nM; Cytotoxicity compared to vehicle [8]: did not display cytotoxic results
5 | CCOCCOCCNC(=O)CCCN1C(=S)N(c2ccc(C#N)c(C(F)(F)F)c2)C(=O)C1(C)C [SARD 280, 4-(3-(4-Cyano-3-(trifluoromethyl)phenyl)-5,5-dimethyl-4-oxo-2-thioxoimidazolidin-1-yl)-N-(2-(2-ethoxyethoxy)ethyl)butanamide] | – | – | affected degradation only at higher concentrations and did not achieve complete AR degradation at the concentrations assayed | – | –
6 | COC1=C2C[C@@H](C)C[C@H](OC)[C@H](O)[C@@H](C)/C=C(\C)[C@H](OC(N)=O)[C@@H](OC)/C=C\C=C(/C)C(=O)NC(=CC1=O)C2=O [geldanamycin, (4E,6Z,8S,9S,10E,12S,13R,14S,16R)-13-hydroxy-8,14,19-trimethoxy-4,10,12,16-tetramethyl-3,20,22-trioxo-2-azabicyclo[16.3.1]docosa-1(21),4,6,10,18-pentaen-9-yl carbamate] | – | – | – | – | Hsp70 levels (immunoblot) [9]: geldanamycin-dependent increase in Hsp70 levels
